From the supplement of paper PMC10307832

compound: CC(C)(C)c1nc(-c2cccc(NS(=O)(=O)c3c(F)cccc3F)c2F)c(-c2ccnc(N)n2)s1 [Dabrafenib] + CC1(C)CCC(c2ccc(Cl)cc2)=C(CN2CCN(c3ccc(C(=O)NS(=O)(=O)c4ccc(N[C@H](CCN5CCOCC5)CSc5ccccc5)c(S(=O)(=O)C(F)(F)F)c4)cc3)CC2)C1 [Navitoclax] (partner 0.5 µM); test: relative viability (nuclei count vs DMSO), 5 days (fraction); higher = more cells survive; settings: first compound 0.003 µM
Outline: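 The day after seeding in 1536-well plates, lung cancer cell lines were treated by pin tool with a single drug, or with a fixed anchor-drug dose together with five library-drug doses (not always all listed) in √10 steps. After 5 days, a combined fix-and-stain solution (final 0.05% Triton X-100, 1% formaldehyde, 1 ug/ml Hoechst) was added. Nuclei counted on 4× images gave relative viability as treated counts over vehicle counts, reported as the median of duplicate plates.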

Row | Cell Line | relative viability
1 | NCI-H2170 | 0.702
2 | UMC-11 | 0.295
3 | NCI-H596 | 0.733
4 | HCC-827 | 0.997
5 | COR-L 105 | 0.73
6 | NCI-H2126 | 0.779
7 | NCI-H1651 | 1.15
8 | NCI-H1755 | 0.949
9 | HOP-62 | 0.89
10 | PC-14 | 1.01
11 | NCI-H1650 | 1.25
12 | HCC-15 | 0.728
13 | LU99A | 0.928
14 | EKVX | 0.778
15 | COR-L23 | 0.948
16 | NCI-H1437 | 1.14
17 | RERF-LC-KJ | 1.21
18 | NCI-H460 | 1.17
19 | H3255 | 0.375
20 | SK-LU-1 | 0.557
21 | NCI-H1793 | 0.463
22 | SW 1573 | 1.13
23 | NCI-H838 | 1.22

same assay, conditions: first compound 0.009487 µM

Row | Cell Line | relative viability
24 | NCI-H2170 | 0.704
25 | UMC-11 | 0.369
26 | NCI-H596 | 0.996
27 | HCC-827 | 1.02
28 | COR-L 105 | 0.856
29 | NCI-H2126 | 0.887
30 | NCI-H647 | 1.07
31 | LOU-NH91 | 0.848
32 | HCC-78 | 0.908
33 | NCI-H1651 | 1.03
34 | NCI-H1755 | 0.938
35 | HOP-62 | 1.01
36 | PC-14 | 0.977
37 | NCI-H1650 | 1.44
38 | ChaGo-K-1 | 0.891
39 | A-427 | 0.954

Row | Cell Line | relative viability
40 | NCI-H1355 | 1.01
41 | HCC-15 | 0.787
42 | LU99A | 0.722
43 | EKVX | 1.01
44 | COR-L23 | 0.997
45 | NCI-H1437 | 1.02
46 | RERF-LC-KJ | 1.21
47 | NCI-H1734 | 0.835
48 | BEN | 0.0803
49 | NCI-H460 | 1.14
50 | H3255 | 0.669
51 | SK-LU-1 | 0.789
52 | NCI-H1793 | 0.599
53 | NCI-H23 | 0.855
54 | SW 1573 | 1.04
55 | NCI-H838 | 1.29

same assay, conditions: first compound 0.03 µM

Row | Cell Line | relative viability
56 | NCI-H2170 | 0.463
57 | UMC-11 | 0.315
58 | NCI-H596 | 0.764
59 | HCC-827 | 0.97
60 | COR-L 105 | 0.649
61 | NCI-H2126 | 0.823
62 | LOU-NH91 | 0.741
63 | HCC-78 | 0.702
64 | NCI-H1651 | 0.997
65 | NCI-H1755 | 0.75
66 | HOP-62 | 1.02
67 | PC-14 | 1.05
68 | NCI-H1650 | 1.21
69 | ChaGo-K-1 | 0.966
70 | A-427 | 0.91
71 | NCI-H1355 | 0.894
72 | HCC-15 | 0.734
73 | LU99A | 0.792
74 | EKVX | 0.961
75 | COR-L23 | 0.908
76 | NCI-H1437 | 1.14
77 | RERF-LC-KJ | 0.902
78 | NCI-H1734 | 0.703
79 | NCI-H460 | 1.26
80 | H3255 | 0.548
81 | SK-LU-1 | 0.806
82 | NCI-H1793 | 0.306
83 | NCI-H23 | 0.755
84 | SW 1573 | 0.998
85 | NCI-H838 | 1.13

same assay, conditions: first compound 0.09487 µM

Row | Cell Line | relative viability
86 | NCI-H2170 | 0.641
87 | UMC-11 | 0.356
88 | NCI-H596 | 1
89 | HCC-827 | 1.01
90 | COR-L 105 | 0.875
91 | NCI-H2126 | 0.866
92 | NCI-H647 | 1.08
93 | LOU-NH91 | 0.719
94 | HCC-78 | 0.795
95 | NCI-H1651 | 1.01
96 | NCI-H1755 | 0.964
97 | HOP-62 | 0.718
98 | PC-14 | 1.01
99 | NCI-H1650 | 1.35
100 | ChaGo-K-1 | 0.986
101 | A-427 | 0.803
102 | HCC-15 | 0.694
103 | LU99A | 0.896
104 | EKVX | 0.894
105 | COR-L23 | 0.927
106 | NCI-H1437 | 1.07
107 | NCI-H1734 | 0.766
108 | BEN | 0.0599
109 | NCI-H460 | 0.998
110 | H3255 | 0.441
111 | SK-LU-1 | 0.709
112 | NCI-H1793 | 0.445
113 | NCI-H23 | 0.795
114 | SW 1573 | 0.755
115 | NCI-H838 | 1.11

same assay, conditions: first compound 0.3 µM

Row | Cell Line | relative viability
116 | NCI-H2170 | 0.594
117 | UMC-11 | 0.332
118 | NCI-H596 | 0.921
119 | HCC-827 | 1.01
120 | COR-L 105 | 0.744
121 | NCI-H2126 | 0.956
122 | NCI-H647 | 1.11
123 | LOU-NH91 | 0.664
124 | HCC-78 | 0.869
125 | NCI-H1651 | 1.03
126 | NCI-H1755 | 0.997
127 | HOP-62 | 1.02
128 | PC-14 | 1.06
129 | NCI-H1650 | 1.42
130 | ChaGo-K-1 | 1.06
131 | A-427 | 0.888
132 | NCI-H1355 | 1.07
